# According to PubChem BioAssay AID2060509 (Molecular Pharmacology Branch, DTP, NCI, 2025):
# System: 485176-168-R4-J1-PDC spheroids with HUVEC/MSC, viability
# Assay: Anticancer human tumor 485176-168-R4-J1-PDC patient-derived pancreatic adenocarcinoma cell line growth inhibition [GQUAD]
# Details: for IC50: curve of first compound; for viability, T/C: stronger effect = lower value
# Procedure, shortened: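 Multi-cell-type spheroids of tumor cells with HUVEC and mesenchymal stem cells, treated with drug combinations. Concentrations descend in half-log steps from near clinical Cmax, or from 10 microM where Cmax is unknown; viability read-out.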
# [1] = second compound 0.0316 µM, first compound 0.0316 µM
# [2] = second compound 0.0316 µM, first compound 0.1 µM
# [3] = second compound 0.0316 µM, first compound 0.316 µM
# [4] = second compound 0.0316 µM, first compound 1 µM
# [5] = second compound 0.0316 µM, first compound 3.16 µM
# [6] = second compound 0.0316 µM, first compound 10 µM
# [7] = second compound 0.1 µM, first compound 0.0316 µM
# [8] = second compound 0.1 µM, first compound 0.1 µM
# [9] = second compound 0.1 µM, first compound 0.316 µM
# [10] = second compound 0.1 µM, first compound 1 µM
# [11] = second compound 0.1 µM, first compound 3.16 µM
# [12] = second compound 0.1 µM, first compound 10 µM
# [13] = second compound 0.316 µM, first compound 0.0316 µM
# [14] = second compound 0.316 µM, first compound 0.1 µM
# [15] = second compound 0.316 µM, first compound 0.316 µM
# [16] = second compound 0.316 µM, first compound 1 µM
# [17] = second compound 0.316 µM, first compound 3.16 µM
# [18] = second compound 0.316 µM, first compound 10 µM
# [19] = second compound 1 µM, first compound 0.0316 µM
# [20] = second compound 1 µM, first compound 0.1 µM
# [21] = second compound 1 µM, first compound 0.316 µM
# [22] = second compound 1 µM, first compound 1 µM
# [23] = second compound 1 µM, first compound 3.16 µM
# [24] = second compound 1 µM, first compound 10 µM
# [25] = second compound 3.16 µM, first compound 0.0316 µM
# [26] = second compound 3.16 µM, first compound 0.1 µM
# [27] = second compound 3.16 µM, first compound 0.316 µM
# [28] = second compound 3.16 µM, first compound 1 µM
# [29] = second compound 3.16 µM, first compound 3.16 µM
# [30] = second compound 3.16 µM, first compound 10 µM
# [31] = second compound 10 µM, first compound 0.0316 µM
# [32] = second compound 10 µM, first compound 0.1 µM
# [33] = second compound 10 µM, first compound 0.316 µM
# [34] = second compound 10 µM, first compound 1 µM
# [35] = second compound 10 µM, first compound 3.16 µM
# [36] = second compound 10 µM, first compound 10 µM
# 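Further: spheroids exposed to compounds for seven days before readout.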
# 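Wherever viability, T/C is given: percent viability relative to DMSO vehicle control wells as 100%.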
smiles,measurement,setting,value
CCCS(=O)(=O)Nc1ccc(F)c(C(=O)c2c[nH]c3ncc(-c4ccc(Cl)cc4)cc23)c1F + CN(C)c1ccc(Nc2c3ccc(NC(=O)CCN4CCCC4)cc3nc3cc(NC(=O)CCN4CCCC4)ccc23)cc1,IC50,second compound 0.0316 µM,> 10 µM
same,IC50,second compound 0.1 µM,> 10 µM
same,IC50,second compound 0.316 µM,> 10 µM
same,IC50,second compound 1 µM,> 10 µM
same,IC50,second compound 3.16 µM,> 10 µM
same,IC50,second compound 10 µM,6.5 µM
same,"viability, T/C",[1],87.4%
same,"viability, T/C",[2],81.9%
same,"viability, T/C",[3],91.6%
same,"viability, T/C",[4],86.4%
same,"viability, T/C",[5],86.3%
same,"viability, T/C",[6],70.1%
same,"viability, T/C",[7],100%
same,"viability, T/C",[8],99%
same,"viability, T/C",[9],83.2%
same,"viability, T/C",[10],73.6%
same,"viability, T/C",[11],94.3%
same,"viability, T/C",[12],60%
same,"viability, T/C",[13],97.5%
same,"viability, T/C",[14],95%
same,"viability, T/C",[15],91.1%
same,"viability, T/C",[16],77.2%
same,"viability, T/C",[17],90.8%
same,"viability, T/C",[18],63.7%
same,"viability, T/C",[19],76.3%
same,"viability, T/C",[20],86.8%
same,"viability, T/C",[21],105%
same,"viability, T/C",[22],94.8%
same,"viability, T/C",[23],82.5%
same,"viability, T/C",[24],65.3%
same,"viability, T/C",[25],91.8%
same,"viability, T/C",[26],87.6%
same,"viability, T/C",[27],78.8%
same,"viability, T/C",[28],81.3%
same,"viability, T/C",[29],81.2%
same,"viability, T/C",[30],51.3%
same,"viability, T/C",[31],76.6%
same,"viability, T/C",[32],83.7%
same,"viability, T/C",[33],65.4%
same,"viability, T/C",[34],70.6%
same,"viability, T/C",[35],63.3%
same,"viability, T/C",[36],42.7%
C=CC(=O)N1CCN(c2nc(=O)n(-c3c(C)ccnc3C(C)C)c3nc(-c4c(O)cccc4F)c(F)cc23)C(C)C1 (stereo not drawn) + Cc1[nH]c2ccc(F)cc2c1-c1nc2c3cccnc3c3ncccc3c2[nH]1,IC50,second compound 0.0316 µM,> 10 µM
same,IC50,second compound 0.1 µM,> 10 µM
same,IC50,second compound 0.316 µM,> 10 µM
same,IC50,second compound 1 µM,> 10 µM
same,IC50,second compound 3.16 µM,> 10 µM
same,IC50,second compound 10 µM,> 10 µM
same,"viability, T/C",[1],114%
same,"viability, T/C",[2],100%
same,"viability, T/C",[3],103%
same,"viability, T/C",[4],89.4%
same,"viability, T/C",[5],122%
same,"viability, T/C",[6],102%
same,"viability, T/C",[7],80.1%
same,"viability, T/C",[8],109%
same,"viability, T/C",[9],116%
same,"viability, T/C",[10],112%
same,"viability, T/C",[11],117%
same,"viability, T/C",[12],102%
same,"viability, T/C",[13],87.3%
same,"viability, T/C",[14],86.4%
same,"viability, T/C",[15],92%
same,"viability, T/C",[16],101%
same,"viability, T/C",[17],111%
same,"viability, T/C",[18],96.7%
same,"viability, T/C",[19],96.7%
same,"viability, T/C",[20],86.5%
same,"viability, T/C",[21],104%
same,"viability, T/C",[22],103%
same,"viability, T/C",[23],113%
same,"viability, T/C",[24],104%
same,"viability, T/C",[25],91.7%
same,"viability, T/C",[26],95.5%
same,"viability, T/C",[27],108%
same,"viability, T/C",[28],83.6%
same,"viability, T/C",[29],92.1%
same,"viability, T/C",[30],90.8%
same,"viability, T/C",[31],87.3%
same,"viability, T/C",[32],105%
same,"viability, T/C",[33],78.1%
same,"viability, T/C",[34],80.8%
same,"viability, T/C",[35],87.7%
same,"viability, T/C",[36],76.5%
Cc1[nH]c2ccccc2c1CCNCc1ccc(/C=C/C(=O)NO)cc1 + Cc1[nH]c2ccc(F)cc2c1-c1nc2c3cccnc3c3ncccc3c2[nH]1,IC50,second compound 0.0316 µM,0.158 µM
same,IC50,second compound 0.1 µM,0.163 µM
same,IC50,second compound 0.316 µM,0.17 µM
same,IC50,second compound 1 µM,0.164 µM
same,IC50,second compound 3.16 µM,0.129 µM
same,IC50,second compound 10 µM,0.15 µM
same,"viability, T/C","second compound 0.0316 µM, first compound 0.000999 µM",99.1%
same,"viability, T/C","second compound 0.0316 µM, first compound 0.00316 µM",106%
same,"viability, T/C","second compound 0.0316 µM, first compound 0.00999 µM",96.3%
same,"viability, T/C",[1],97%
same,"viability, T/C","second compound 0.0316 µM, first compound 0.0999 µM",77.1%
same,"viability, T/C",[3],9.63%
same,"viability, T/C","second compound 0.1 µM, first compound 0.000999 µM",105%
same,"viability, T/C","second compound 0.1 µM, first compound 0.00316 µM",104%
same,"viability, T/C","second compound 0.1 µM, first compound 0.00999 µM",89.5%
same,"viability, T/C",[7],89%
same,"viability, T/C","second compound 0.1 µM, first compound 0.0999 µM",78.7%
same,"viability, T/C",[9],15.7%
same,"viability, T/C","second compound 0.316 µM, first compound 0.000999 µM",103%
same,"viability, T/C","second compound 0.316 µM, first compound 0.00316 µM",89.9%
same,"viability, T/C","second compound 0.316 µM, first compound 0.00999 µM",80%
same,"viability, T/C",[13],82.4%
same,"viability, T/C","second compound 0.316 µM, first compound 0.0999 µM",81.3%
same,"viability, T/C",[15],15.3%
same,"viability, T/C","second compound 1 µM, first compound 0.000999 µM",82.4%
same,"viability, T/C","second compound 1 µM, first compound 0.00316 µM",89.7%
same,"viability, T/C","second compound 1 µM, first compound 0.00999 µM",95%
same,"viability, T/C",[19],89.3%
same,"viability, T/C","second compound 1 µM, first compound 0.0999 µM",72.8%
same,"viability, T/C",[21],19.7%
same,"viability, T/C","second compound 3.16 µM, first compound 0.000999 µM",79.5%
same,"viability, T/C","second compound 3.16 µM, first compound 0.00316 µM",93%
same,"viability, T/C","second compound 3.16 µM, first compound 0.00999 µM",80%
same,"viability, T/C",[25],74.3%
same,"viability, T/C","second compound 3.16 µM, first compound 0.0999 µM",61%
same,"viability, T/C",[27],15.5%
same,"viability, T/C","second compound 10 µM, first compound 0.000999 µM",85.8%
same,"viability, T/C","second compound 10 µM, first compound 0.00316 µM",93.7%
same,"viability, T/C","second compound 10 µM, first compound 0.00999 µM",88.6%
same,"viability, T/C",[31],68.4%
same,"viability, T/C","second compound 10 µM, first compound 0.0999 µM",73.2%
same,"viability, T/C",[33],18.8%
O=C(c1cc(Cc2n[nH]c(=O)c3ccccc23)ccc1F)N1CCN(C(=O)C2CC2)CC1 + Cc1[nH]c2ccc(F)cc2c1-c1nc2c3cccnc3c3ncccc3c2[nH]1,IC50,second compound 0.0316 µM,> 10 µM
same,IC50,second compound 0.1 µM,> 10 µM
same,IC50,second compound 0.316 µM,> 10 µM
same,IC50,second compound 1 µM,> 10 µM
same,IC50,second compound 3.16 µM,> 10 µM
same,IC50,second compound 10 µM,> 10 µM
same,"viability, T/C",[1],99.9%
same,"viability, T/C",[2],75.3%
same,"viability, T/C",[3],85.6%
same,"viability, T/C",[4],80.5%
same,"viability, T/C",[5],91.2%
same,"viability, T/C",[6],69.9%
same,"viability, T/C",[7],82.6%
same,"viability, T/C",[8],93.9%
same,"viability, T/C",[9],90.3%
same,"viability, T/C",[10],106%
same,"viability, T/C",[11],83.2%
same,"viability, T/C",[12],74.9%
same,"viability, T/C",[13],93.8%
same,"viability, T/C",[14],90.5%
same,"viability, T/C",[15],94.6%
same,"viability, T/C",[16],95.6%
same,"viability, T/C",[17],77.8%
same,"viability, T/C",[18],77.3%
same,"viability, T/C",[19],92.8%
same,"viability, T/C",[20],78.9%
same,"viability, T/C",[21],88.1%
same,"viability, T/C",[22],86.4%
same,"viability, T/C",[23],101%
same,"viability, T/C",[24],68.8%
same,"viability, T/C",[25],91.4%
same,"viability, T/C",[26],89.2%
same,"viability, T/C",[27],85.3%
same,"viability, T/C",[28],77.6%
same,"viability, T/C",[29],88.1%
same,"viability, T/C",[30],62.5%
same,"viability, T/C",[31],78.5%
same,"viability, T/C",[32],85.3%
same,"viability, T/C",[33],70.4%
same,"viability, T/C",[34],77.1%
same,"viability, T/C",[35],80%
same,"viability, T/C",[36],57.5%
